A value given as a limit tells only on which side of the number the result lay.

Experiment [1] concerns the target human TLR8 (Homo sapiens (Human), UniProt Q9NR97). Nature of the experiment: HEK-Blue human TLR8 cells, NF-κB SEAP reporter assay. The experiment is classed as cell-based. The conditions noted are these: stimulation for 20 hours. From the text: (§1) For TLR8 and TLR7 activity testing, HEK-Blue human TLR8 or TLR7 cells (Invivogen, San Diego, Calif., USA) are used, respectively. These cells are designed for studying the stimulation of human TLR8 or TLR7 by monitoring the activation of NF-κB. A SEAP (secreted embryonic alkaline phosphatase) reporter gene is placed under the control of the IFN-b minimal promoter fused to five NF-κB and AP-1-binding sites. Therefore the reporter expression is regulated by the NF-κB promoter upon stimulation of human TLR8 or TLR7 for 20 hours. The cell culture supernatant SEAP reporter activity was determined using Quanti Blue kit (Invivogen, San Diego, Ca, USA) at a wavelength of 640 nm, a detection medium that turns purple/blue in the presence of alkaline phosphatase. EC50 values were determined using Activity Base analysis (ID Business Solution, Limited).

For experiment [2], the target named is human TLR7 (Homo sapiens (Human), UniProt Q9NYK1). As to the kind of experiment: HEK-Blue human TLR7 cells, NF-κB SEAP reporter assay. The experiment is classed as cell-based. The conditions noted are these: stimulation for 20 hours.
human TLR7, sequence (Q9NYK1 27-1049): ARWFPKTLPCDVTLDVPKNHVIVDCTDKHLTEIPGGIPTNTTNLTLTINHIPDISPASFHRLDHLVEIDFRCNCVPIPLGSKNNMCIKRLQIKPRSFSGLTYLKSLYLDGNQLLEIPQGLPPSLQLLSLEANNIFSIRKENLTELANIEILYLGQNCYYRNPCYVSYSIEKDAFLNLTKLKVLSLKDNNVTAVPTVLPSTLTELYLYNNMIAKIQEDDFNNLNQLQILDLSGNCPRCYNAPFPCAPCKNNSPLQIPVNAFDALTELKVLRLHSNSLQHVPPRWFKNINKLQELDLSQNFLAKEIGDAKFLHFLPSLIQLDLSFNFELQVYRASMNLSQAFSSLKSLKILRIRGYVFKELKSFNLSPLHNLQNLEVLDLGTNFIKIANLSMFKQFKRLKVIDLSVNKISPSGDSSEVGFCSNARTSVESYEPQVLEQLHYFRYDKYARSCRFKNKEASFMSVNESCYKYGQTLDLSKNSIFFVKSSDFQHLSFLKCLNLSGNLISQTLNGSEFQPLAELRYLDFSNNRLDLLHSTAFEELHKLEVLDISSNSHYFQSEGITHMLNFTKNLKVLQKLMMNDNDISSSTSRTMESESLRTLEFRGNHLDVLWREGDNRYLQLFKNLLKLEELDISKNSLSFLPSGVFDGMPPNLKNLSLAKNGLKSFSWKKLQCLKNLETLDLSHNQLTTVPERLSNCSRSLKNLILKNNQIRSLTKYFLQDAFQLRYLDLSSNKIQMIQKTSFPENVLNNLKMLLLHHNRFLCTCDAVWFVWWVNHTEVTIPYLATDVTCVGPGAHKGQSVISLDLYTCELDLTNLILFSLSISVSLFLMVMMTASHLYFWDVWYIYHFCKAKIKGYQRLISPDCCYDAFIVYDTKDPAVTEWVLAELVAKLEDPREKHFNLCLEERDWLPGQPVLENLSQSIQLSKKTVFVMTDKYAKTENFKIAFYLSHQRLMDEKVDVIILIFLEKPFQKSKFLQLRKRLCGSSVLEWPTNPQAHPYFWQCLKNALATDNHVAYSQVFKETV
Source text: as §1

human TLR8, sequence (Q9NR97 27-1041): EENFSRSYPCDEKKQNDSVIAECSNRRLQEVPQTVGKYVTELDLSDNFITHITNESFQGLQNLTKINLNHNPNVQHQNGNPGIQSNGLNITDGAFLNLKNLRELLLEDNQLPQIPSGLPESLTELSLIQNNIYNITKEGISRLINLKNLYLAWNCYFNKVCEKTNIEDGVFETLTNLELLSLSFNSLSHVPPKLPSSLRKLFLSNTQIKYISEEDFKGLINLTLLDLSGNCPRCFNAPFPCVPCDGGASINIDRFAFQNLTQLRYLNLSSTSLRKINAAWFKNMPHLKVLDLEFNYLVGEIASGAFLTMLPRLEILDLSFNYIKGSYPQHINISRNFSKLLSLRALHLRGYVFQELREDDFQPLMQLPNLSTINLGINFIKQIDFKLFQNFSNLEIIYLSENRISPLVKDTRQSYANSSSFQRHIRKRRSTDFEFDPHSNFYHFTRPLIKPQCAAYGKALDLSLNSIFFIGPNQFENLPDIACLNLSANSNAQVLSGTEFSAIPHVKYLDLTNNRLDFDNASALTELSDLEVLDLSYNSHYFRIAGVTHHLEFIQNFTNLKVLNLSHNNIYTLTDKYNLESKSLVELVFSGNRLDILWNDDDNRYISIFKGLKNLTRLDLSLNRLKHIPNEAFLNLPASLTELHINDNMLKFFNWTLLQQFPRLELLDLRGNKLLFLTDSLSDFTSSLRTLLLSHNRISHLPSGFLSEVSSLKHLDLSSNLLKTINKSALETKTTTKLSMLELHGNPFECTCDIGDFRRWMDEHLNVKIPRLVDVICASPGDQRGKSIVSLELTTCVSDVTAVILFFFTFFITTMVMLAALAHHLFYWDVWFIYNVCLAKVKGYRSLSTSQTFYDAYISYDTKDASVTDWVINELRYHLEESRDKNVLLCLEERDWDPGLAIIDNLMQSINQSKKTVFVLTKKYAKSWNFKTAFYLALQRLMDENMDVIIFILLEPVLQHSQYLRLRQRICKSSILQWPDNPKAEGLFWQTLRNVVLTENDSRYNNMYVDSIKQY

Take `CCCN(CCC)C(=O)C1=Cc2ccc(C(=O)Nc3cncn3C)cc2N=C(N)C1` [Example 12, 2-Amino-N8-(3-methylimidazol-4-yl)-N4,N4-dipropyl-3H-1-benzazepine-4,8-dicarboxamide]: the figures for the half-maximal effective concentration (EC50) in experiment [1] and in experiment [2] were 4 nM and > 100000 nM, respectively.
Taken in the same sequence, the figures for `CCCN(CCC)C(=O)C1=Cc2ccc(C(=O)Nc3ccccc3)cc2N=C(N)C1` [Example 4, 2-Amino-N8-phenyl-N4,N4-dipropyl-3H-1-benzazepine-4,8-dicarboxamide] were 7 nM and > 100000 nM.
In the same order, the values of `CCCN(CCC)C(=O)C1=Cc2ccc(C(=O)Nc3cccc(CCN)c3)cc2N=C(N)C1` [Example 17, 2-Amino-N8-[3-(2-aminoethyl)phenyl]-N4,N4-dipropyl-3H-1-benzazepine-4,8-dicarboxamide] are 6 nM and > 100000 nM.
Taken in the same sequence, the figures for `CCCN(CCC)C(=O)C1=Cc2ccc(C(=O)Nc3cncc(CCCCCN)c3)cc2N=C(N)C1` [Example 72, 2-Amino-N8-[5-(5-aminopentyl)-3-pyridyl]-N4,N4-dipropyl-3H-1-benzazepine-4,8-dicarboxamide] were 25 nM and > 100000 nM.
With `CCCN(CCC)C(=O)C1=Cc2ccc(C(=O)Nc3ccc(CCCN)cc3)cc2N=C(N)C1` [Example 61, 2-Amino-N8-[4-(3-aminopropyl)phenyl]-N4,N4-dipropyl-3H-1-benzazepine-4,8-dicarboxamide], the EC50 in experiment [1] was 5 nM; in experiment [2] it was > 100000 nM.
Taken in the same sequence, the figures for `CCCN(CCC)C(=O)C1=Cc2ccc(C(=O)Nc3cncc(CO)c3)cc2N=C(N)C1` [Example 6, 2-Amino-N8-[5-(hydroxymethyl)-3-pyridyl]-N4,N4-dipropyl-3H-1-benzazepine-4,8-dicarboxamide] were 8 nM and > 100000 nM.
Taken in the same sequence, the figures for `CCCN(CCC)C(=O)C1=Cc2ccc(C(=O)Nc3ccc(F)c(CCN)c3)cc2N=C(N)C1` [Example 63, 2-Amino-N8-[3-(2-aminoethyl)-4-fluoro-phenyl]-N4,N4-dipropyl-3H-1-benzazepine-4,8-dicarboxamide] were 11 nM and > 100000 nM.
In the same order, the values of `CCCN(CCCO)C(=O)C1=Cc2ccc(C(=O)Nc3cccc(C)c3)cc2N=C(N)C1` [Example 26, 2-Amino-N4-(3-hydroxypropyl)-N8-(m-tolyl)-N4-propyl-3H-1-benzazepine-4,8-dicarboxamide] are 2 nM and > 100000 nM.
As to `CCCN(CC(C)C)C(=O)C1=Cc2ccc(C(=O)Nc3cccc(C)c3)cc2N=C(N)C1` [Example 55, 2-Amino-N4-isobutyl-N8-(m-tolyl)-N4-propyl-3H-1-benzazepine-4,8-dicarboxamide], the EC50 in experiment [1] was 2 nM; in experiment [2], > 100000 nM.
In the same order, the values of `CCCN(CCC)C(=O)C1=Cc2ccc(C(=O)Nc3cccc(CCCCN)c3)cc2N=C(N)C1` [Example 62] are 7 nM and > 100000 nM.
In the same order, the values of `CCCCN(CCCC)C(=O)C1=Cc2ccc(C(=O)Nc3cccc(C)c3)cc2N=C(N)C1` [Example 42, 2-Amino-N4,N4-dibutyl-N8-(m-tolyl)-3H-1-benzazepine-4,8-dicarboxamide] are 17 nM and > 100000 nM.
On to `CCCN(CCC)C(=O)C1=Cc2ccc(C(=O)Nc3cncnc3)cc2N=C(N)C1` [Example 2, 2-Amino-N4,N4-dipropyl-N8-pyrimidin-5-yl-3H-1-benzazepine-4,8-dicarboxamide], for which the concentration for a half-maximal effect (EC50) was 1 nM in experiment [1] and > 100000 nM in experiment [2].
In the same order, the values of `CCCN(CCC)C(=O)C1=Cc2ccc(C(=O)Nc3cncc(OCCCCCN)c3)cc2N=C(N)C1` [Example 46, 2-Amino-N8-[5-(5-aminopentoxy)-3-pyridyl]-N4,N4-dipropyl-3H-1-benzazepine-4,8-dicarboxamide] are 10 nM and > 100000 nM.
In the same order, the values of `CCCN(CCC)C(=O)C1=Cc2ccc(C(=O)Nc3ccc(CO)nc3)cc2N=C(N)C1` [Example 7, 2-Amino-N8-[6-(hydroxymethyl)-3-pyridyl]-N4,N4-dipropyl-3H-1-benzazepine-4,8-dicarboxamide] are 15 nM and > 100000 nM.
`CCCN(CCC)C(=O)C1=Cc2ccc(C(=O)Nc3cccc(COCCOCCN)c3)cc2N=C(N)C1` [Example 47, 2-Amino-N8-[3-[2-(2-aminoethoxy)ethoxymethyl]phenyl]-N4,N4-dipropyl-3H-1-benzazepine-4,8-dicarboxamide]: the EC50 in experiment [1] is 6 nM; in experiment [2], > 100000 nM.
In the same order, the values of `CCCN(CCC)C(=O)C1=Cc2ccc(C(=O)Nc3cccnc3)cc2N=C(N)C1` [Example 1, 2-Amino-N4,N4-dipropyl-N8-(3-pyridyl)-3H-1-benzazepine-4,8-dicarboxamide] are 1 nM and 80800 nM.
Taken in the same sequence, the figures for `CCCN(CCC)C(=O)C1=Cc2ccc(C(=O)Nc3ccc(Cl)cc3)cc2N=C(N)C1` [Example 10, 2-Amino-N8-(4-chlorophenyl)-N4,N4-dipropyl-3H-1-benzazepine-4,8-dicarboxamide] were 2 nM and > 100000 nM.
In the same order, the values of `CCCN(CCC)C(=O)C1=Cc2ccc(C(=O)Nc3cc(Cl)cc(CCN)c3)cc2N=C(N)C1` [Example 64, 2-Amino-N8-[3-(2-aminoethyl)-5-chloro-phenyl]-N4,N4-dipropyl-3H-1-benzazepine-4,8-dicarboxamide] are 29 nM and > 100000 nM.
As for `CCCN(CCC)C(=O)C1=Cc2ccc(C(=O)Nc3cncc(CCc4ccc(OC)cc4)c3)cc2N=C(N)C1` [Example 70, 2-Amino-N8-[5-[2-(4-methoxyphenyl)ethyl]-3-pyridyl]-N4,N4-dipropyl-3H-1-benzazepine-4,8-dicarboxamide], the EC50 in experiment [1] was 12 nM; in experiment [2], > 100000 nM.
With `CCCN(CCC)C(=O)C1=Cc2ccc(C(=O)Nc3ccc(CCN)cc3)cc2N=C(N)C1` [Example 25, 2-Amino-N8-[4-(2-aminoethyl)phenyl]-N4,N4-dipropyl-3H-1-benzazepine-4,8-dicarboxamide], the EC50 in experiment [1] is 18 nM; in experiment [2], > 100000 nM.
In the same order, the values of `CCCCN(CCO)C(=O)C1=Cc2ccc(C(=O)Nc3cccc(C)c3)cc2N=C(N)C1` [Example 65, 2-Amino-N4-butyl-N4-(2-hydroxyethyl)-N8-(m-tolyl)-3H-1-benzazepine-4,8-dicarboxamide] are 6 nM and > 100000 nM.
In the same order, the values of `CCCN(CCC)C(=O)C1=Cc2ccc(C(=O)Nc3cc(C)cc(C)c3)cc2N=C(N)C1` [Example 23, 2-Amino-N8-(3,5-dimethylphenyl)-N4,N4-dipropyl-3H-1-benzazepine-4,8-dicarboxamide] are 1 nM and > 100000 nM.
Turning to `CCCN(CCC)C(=O)C1=Cc2ccc(C(=O)Nc3cncc(C)c3)cc2N=C(N)C1` [Example 18, 2-Amino-N8-(5-methyl-3-pyridyl)-N4,N4-dipropyl-3H-1-benzazepine-4,8-dicarboxamide], the figures for the EC50 in experiment [1] and in experiment [2] were 2 nM and 34000 nM, respectively.
Taken in the same sequence, the figures for `CCCN(CCC)C(=O)C1=Cc2ccc(C(=O)Nc3ccc(CN)nc3)cc2N=C(N)C1` [Example 5, 2-Amino-N8-[6-(aminomethyl)-3-pyridyl]-N4,N4-dipropyl-3H-1-benzazepine-4,8-dicarboxamide] were 3 nM and > 100000 nM.
Taken in the same sequence, the figures for `CCCN(CCC)C(=O)C1=Cc2ccc(C(=O)Nc3cccc(OCCOCCN)c3)cc2N=C(N)C1` [Example 45, 2-Amino-N8-[3-[2-(2-aminoethoxy)ethoxy]phenyl]-N4,N4-dipropyl-3H-1-benzazepine-4,8-dicarboxamide] were 26 nM and > 100000 nM.
In the same order, the values of `CCCN(CCC)C(=O)C1=Cc2ccc(C(=O)Nc3cncc(CCCCN)c3)cc2N=C(N)C1` [Example 76, 2-Amino-N8-[5-(4-aminobutyl)-3-pyridyl]-N4,N4-dipropyl-3H-1-benzazepine-4,8-dicarboxamide] are 24 nM and > 100000 nM.
As for `CCCN(CCCO)C(=O)C1=Cc2ccc(C(=O)Nc3cccnc3)cc2N=C(N)C1` [Example 39, 2-Amino-N4-(3-hydroxypropyl)-N4-propyl-N8-(3-pyridyl)-3H-1-benzazepine-4,8-dicarboxamide], the values for the EC50 in experiment [1] and in experiment [2] were 29 nM and > 100000 nM, respectively.
Take `CCCN(CCC)C(=O)C1=Cc2ccc(C(=O)Nc3cncc(CCc4ccccc4)c3)cc2N=C(N)C1` [Example 69, 2-Amino-N8-[5-(2-phenylethyl)-3-pyridyl]-N4,N4-dipropyl-3H-1-benzazepine-4,8-dicarboxamide]: the EC50 in experiment [1] was 8 nM; in experiment [2], > 100000 nM.
Taken in the same sequence, the figures for `CCCN(CCC)C(=O)C1=Cc2ccc(C(=O)Nc3cccc(CC)c3)cc2N=C(N)C1` [Example 29, 2-Amino-N8-(3-ethylphenyl)-N4,N4-dipropyl-3H-1-benzazepine-4,8-dicarboxamide] were 1 nM and > 100000 nM.
Taken in the same sequence, the figures for `CCCN(CCC)C(=O)C1=Cc2ccc(C(=O)Nc3ccc(CCCCN)nc3)cc2N=C(N)C1` [Example 77, 2-Amino-N8-[6-(4-aminobutyl)-3-pyridyl]-N4,N4-dipropyl-3H-1-benzazepine-4,8-dicarboxamide] were 8 nM and > 100000 nM.
In the same order, the values of `CCCN(CCC)C(=O)C1=Cc2ccc(C(=O)Nc3ccncc3)cc2N=C(N)C1` [Example 3, 2-Amino-N4,N4-dipropyl-N8-(4-pyridyl)-3H-1-benzazepine-4,8-dicarboxamide] are 13 nM and 70100 nM.

Source of the values: US9475775B2, “Benzazepine dicarboxamide compounds” (Hoffmann-La Roche Inc., priority 2015, dated 2016).
